Test [1] concerns RAW264.7. Briefly: Cytotoxicity against mouse RAW264.7 cells. Format: functional.
The test system of test [2] is Mycobacteroides abscessus. Briefly: Antibacterial activity against Mycobacterium abscessus CIP 104536T rough morphotype incubated for 1 to 14 days. As to conditions: time 1-14 day. The class given is functional.
Test [3] concerns Mycobacteroides abscessus. Put plainly: Antibacterial activity against Mycobacterium abscessus CIP 104536T smooth morphotype incubated for 1 to 14 days. Format: functional. As to conditions: time 1-14 day.
Test [4] is described as follows: (§1) Antibacterial activity against Mycobacterium Mycobacterium abscessus CIP 104536T infected in mouse RAW264.7 cells assessed as […] incubated for 4 to 5 days. The class given is functional. As to conditions: Mycobacteroides abscessus, time 4-5 day.
Test [5] deals with Mycobacterium tuberculosis. Briefly: Inhibition of Mycobacterium tuberculosis Lipy assessed as pomegranate oil TAG lipolysis at 4 times molar excess of inhibitor concentration related to 1 mole of enzyme incubated for 30 mins by microtitre plate assay.
Test [6] concerns Mycobacterium tuberculosis. Put plainly: Inhibition of Mycobacterium tuberculosis Lipy incubated for 30 mins by UV spectrophotometric analysis.
Test [7] relates to Mycobacterium tuberculosis. Briefly: Inhibition of Mycobacterium tuberculosis Lipy assessed as pomegranate oil TAG lipolysis at 20 times molar excess of inhibitor concentration related to 1 mole of enzyme incubated for 30 mins by microtitre plate assay.
The subject of test [8] is Mycobacterium tuberculosis. Put plainly: Antibacterial activity against Mycobacterium tuberculosis. Format: functional.
The subject of test [9] is Mycobacterium. Put plainly: Antibacterial activity against Mycobacterium by REMA assay. The class given is functional.
The subject of test [10] is RAW264.7. The description is as §1. The class given is functional. Particulars: Mycobacteroides abscessus, time 4-5 day.
A short description of test [11]: Inhibition of Mycobacterium tuberculosis Cut6.
Test [12] is described as follows: Antibacterial activity against Mycobacterium Mycobacterium abscessus CIP 104536T infected in mouse RAW264.7 cells assessed as bacterial viability at 30 uM incubated for 4 to 5 days relative to control. The class given is functional, Mycobacteroides abscessus. As to conditions: time 4-5 day.
The subject of test [13] is Mycobacterium tuberculosis. Put plainly: Antibacterial activity against Mycobacterium tuberculosis incubated for 2 to 3 weeks. Format: functional. As to conditions: time 2-3 weeks.

Molecules are shown by their SMILES. In brackets after ≈: the same amount, converted by molar mass.

Consider `CCCCCCCCCCCCCCCCO[P@]1(=O)OC[C@@H]2COC(=O)C2=C(C)O1`, for which the half-maximal cytotoxic concentration (CC50) (in general, the concentration at which the toxic effect on the cells reaches its halfway point) in [1] was more than 100 µM.
For `CCCCCCCCCC[C@H]1CC[P@@](=O)(OC)OC(C)=C1C(=O)OC`, the MIC50 (usually an inhibitory concentration at the 50% level, which refers to growth in some studies and to a panel of isolates in others) in test [2] is more than 100 µM; in test [3], more than 100 µM; in test [4], 65.3 µM (≈ 24.5 µg/mL). For the same compound, in test [1], the half-maximal cytotoxic concentration (CC50) was more than 100 µM.
For `COc1nn(-c2ccccc2)c(=O)o1`, the inhibition – broadly, how much of the control response was suppressed – in test [5] was 34.4%; in [7], 81.8%. For the same compound, in [6], the I50 turned out to be 10.9 molar excess. In addition, the MIC50 in test [2] is more than 200 µM; in test [3], more than 200 µM; in [4], 36.5 µM (≈ 7.01 µg/mL).
For the compound `CCCCCCOc1nn(-c2ccc(Oc3ccccc3)cc2)c(=O)o1`, the values for the inhibition in [5] and in test [7] were 38.7% and 77.2%, respectively. In test [6], this compound gave an I50 of 2.9 molar excess. Moreover, the CC50 in test [1] was more than 100 µM.
In [8], `C=CCCCCCCC[C@H]1C(=O)O[C@@H]1CCCCCNC(=O)c1ccc(N(C)C)cc1` came in with an INH of 1.6 µM.
Consider `CCCCCCCCCCOc1nn(-c2cccc(Oc3ccccc3)c2)c(=O)o1`, for which the inhibition in test [5] was 91.5%; in test [7] it was 94.2%. Further, in [6], the I50 is 0.67 molar excess.
Regarding `CCCCCCCCCCCCCCCCOP1(=O)OCCC(C(=O)OC)=C(C)O1` (stereo unspecified), the MIC50 is 0.37 µM (≈ 0.165 µg/mL) in test [2], 12.7 µM (≈ 5.67 µg/mL) in test [3] and “NE” in test [10]. Also, the MIC (commonly the smallest concentration in the dilution series that meets the test's criterion for growth inhibition) in [9] turned out to be 2 mg/L (≈ 4.48 µM). The compound also came in with a CC50 in [1] of more than 100 µM.
For the compound `CCOc1nn(-c2cccc(Oc3ccccc3)c2)c(=O)o1`, the inhibition was 21.7% in test [5] and 53.8% in test [7]. In [6], this compound showed an I50 of 6.5 molar excess.
In the case of `CCCCCCCCCCC[C@@H](C[C@@H]1OC(=O)[C@H]1CCCCCC)OC(=O)[C@H]1CCCN1C(C)=O`, the IC50 (usually the point on the concentration scale where inhibition reaches its midpoint) in test [11] was found to be 0.2 µM.
As for `O=c1oc(OCCOCc2ccccc2)nn1-c1cccc(Oc2ccccc2)c1`, the inhibition is 88% in test [5] and 90.2% in [7]. The I50 in [6] was found to be 0.72 molar excess.
For `O=c1oc(OCCOCc2ccccc2)nn1-c1ccccc1`, the inhibition in [5] came to 89%; in [7] it was 92.2%. This compound came in with an I50 in test [6] of 0.61 molar excess. Moreover, in test [1], the CC50 was more than 100 µM.
Regarding `CCCCCCCCOc1nn(-c2cccc(Oc3ccccc3)c2)c(=O)o1`, the inhibition in test [5] was determined as 83.2%; in test [7], 86.6%. In test [6], this compound came in with an I50 of 0.71 molar excess.
On the same counts, the results for `CCCCCCCCCCCCOc1nn(-c2cccc(Oc3ccccc3)c2)c(=O)o1` are 88.7%, 90.4% and 0.77 molar excess.
For the compound `CCCCCCCCCCC1=C(C(=O)OC)CCOP(=O)(OC)O1` (stereo unspecified), the results for the MIC50 in test [2], in test [3] and in [10] were 13.9 µM (≈ 5.04 µg/mL), 85 µM (≈ 30.8 µg/mL) and “NE”, respectively.
Consider `CCCCCCCCCCC[C@@H](C[C@@H]1OC(=O)[C@H]1CCCCCC)OC(=O)[C@@H]1CSCN1C(C)=O`, for which the IC50 in test [11] is 0.2 µM.
The same measure, in the same setting: the same measure for `CCCCCCCCCCC[C@@H](C[C@@H]1OC(=O)[C@H]1CCCCCC)OC(=O)[C@@H]1CCCN1C(C)=O`: 0.2 µM.
Take `NCC[C@H](O)C(=O)N[C@@H]1C[C@H](N)[C@@H](O[C@H]2O[C@H](CN)[C@@H](O)[C@H](O)[C@H]2O)[C@H](O)[C@H]1O[C@H]1O[C@H](CO)[C@@H](O)[C@H](N)[C@H]1O` [AMIKACIN]: the MIC50 in test [2] stood at 7.4 µM (≈ 4.33 µg/mL); in test [3], 3.9 µM (≈ 2.28 µg/mL).
For `C[C@@H](O)[C@H]1C(=O)N2C(C(=O)O)=C(SCCNC=N)C[C@H]12` [IMIPENEM ANHYDROUS], the MIC50 in test [2] is 29.9 µM (≈ 8.95 µg/mL); in test [3], 11.3 µM (≈ 3.38 µg/mL); in test [4] it was 28.3 µM (≈ 8.47 µg/mL).
For the compound `CC(C)COc1nn(-c2ccccc2)c(=O)o1`, the inhibition in test [5] turned out to be 31.6%; in [7] it was 47.9%. The compound further registered an I50 in [6] of 9.2 molar excess. This compound displayed a CC50 in test [1] of more than 100 µM.
In [1], `NNC(=O)c1ccncc1` [ISONIAZID] gave a CC50 of more than 150 µM.
For `CC(C)COc1nn(-c2ccc(Oc3ccccc3)cc2)c(=O)o1`, in [12], the Activity is given as 59%. Besides, the inhibition in test [5] is 33.8%; in test [7], 41.6%. For the same compound, the I50 in test [6] is more than 40 molar excess. In addition, the MIC50 in test [2] is 53.2 µM (≈ 17.4 µg/mL); in test [3], 33 µM (≈ 10.8 µg/mL); in [4] it was less than 30 µM. The CC50 in test [1] is more than 100 µM.
For `CCCCCCCCCC[C@@H]1CC[P@@](=O)(OC)OC(C)=C1C(=O)OC`, the MIC50 was more than 100 µM in test [2], more than 100 µM in test [3] and 29.3 µM (≈ 11 µg/mL) in test [4]. Further, the CC50 in test [1] is more than 100 µM.
`CCCCCC(CC)Oc1nn(-c2cccc(Oc3ccccc3)c2)c(=O)o1` (stereo unspecified): the inhibition stood at 89.6% in test [5] and 94.8% in [7]. The compound further registered an I50 in test [6] of 0.73 molar excess.
As for `CCCCCCCCCCCCCCCCC1=C(C(=O)OC)CCOP(=O)(OC)O1` (stereo unspecified), the MIC50 was 6.9 µM (≈ 3.08 µg/mL) in test [2], 60 µM (≈ 26.8 µg/mL) in [3] and “NE” in [10].
As to `CC(C)COc1nn(-c2cccc(Oc3ccccc3)c2)c(=O)o1`, the values for the inhibition in [5] and in [7] were 37.4% and 49.4%, respectively. For the same compound, the I50 in test [6] is 3.9 molar excess.
`CCCCCCCCCCC[C@@H](C[C@@H]1OC(=O)[C@H]1CCCCCC)OC(=O)[C@H](CC(C)C)NC=O` [ORLISTAT]: the inhibition in test [5] amounted to 26.8%; in test [7] it was 87.6%. The I50 in [6] was 7.1 molar excess. In addition, half-maximal inhibition in test [11] (IC50) was put at 3.8 µM.
In the case of `COCCOc1nn(-c2cccc(Oc3ccccc3)c2)c(=O)o1`, the inhibition in [5] came to 92.4%; in test [7], 93.7%. For the same compound, the I50 in [6] was 0.69 molar excess.
For the compound `CO[C@H]1/C=C/O[C@@]2(C)Oc3c(C)c(O)c4c(O)c(c(/C=N/N5CCN(C)CC5)c(O)c4c3C2=O)NC(=O)/C(C)=C\C=C\[C@H](C)[C@H](O)[C@@H](C)[C@@H](O)[C@@H](C)[C@H](OC(C)=O)[C@@H]1C` [RIFAMPIN], the CC50 in test [1] was 24 µM. In other words, the double-digit micromolar range.
Compound `CCCCCCCCCCC[C@@H](C[C@@H]1OC(=O)[C@H]1CCCCCC)OC(=O)[C@H]1CCCN1C=O` yielded an IC50 in test [11] of 0.2 µM.
With `CCCCCCOc1nn(-c2cccc(Oc3ccccc3)c2)c(=O)o1`, the inhibition in [5] came to 39.9%; in [7], 76.5%. In test [6], this compound showed an I50 of 3.3 molar excess.
As for `CCCCCCCCCCC[C@@H](C[C@@H]1OC(=O)[C@H]1CCCCCC)OC(=O)[C@@H]1CCCN1C=O`, in test [11], the IC50 stood at 0.2 µM.
As to `O=c1oc(OCCOCc2ccccc2)nn1-c1ccc(Oc2ccccc2)cc1`, the inhibition in test [5] was 97%; in [7], 98.4%. This compound also had an I50 in test [6] of 0.59 molar excess. In [1], this compound gave a CC50 of more than 100 µM.
As to `COc1nn(-c2cccc(Oc3ccccc3)c2)c(=O)o1`, the inhibition in test [5] was determined as 63.6%; in test [7] it was 85.9%. The same compound returned an MIC in test [13] of 50 µM (≈ 14.2 µg/mL). For the same compound, the I50 in test [6] was 2.4 molar excess.
Regarding `CCCCCCCCCCCC[C@H]1CC[P@@](=O)(OC)OC(C)=C1C(=O)OC`, the MIC50 was more than 100 µM in test [2], more than 100 µM in [3] and 2 µM (≈ 0.805 µg/mL) in test [4]. In test [1], this compound came in with a CC50 of more than 20 µM.
For the compound `COc1nn(-c2ccc(Oc3ccccc3)cc2)c(=O)o1`, the inhibition in [5] was 60.8%; in test [7] it was 79.4%. For the same compound, the I50 in [6] amounted to 0.93 molar excess. The MIC50 in test [2] is more than 200 µM; in [3], 88.2 µM (≈ 25.1 µg/mL); in test [4], 75.2 µM (≈ 21.4 µg/mL).
`CCCCOc1nn(-c2cccc(Oc3ccccc3)c2)c(=O)o1`: the figures for the inhibition in test [5] and in test [7] were 15.6% and 63.7%, respectively. In addition, in [6], the I50 was more than 40 molar excess.
With `CCCCCCOc1nn(-c2ccccc2)c(=O)o1`, the inhibition is 35% in [5] and 38.8% in test [7]. For the same compound, the I50 in test [6] was more than 40 molar excess. The same compound had a 50% cytotoxic concentration (CC50) in test [1] of more than 100 µM.
`CCCCCCCCCCCCCCCCO[P@]1(=O)OC[C@H]2COC(=O)C2=C(C)O1`: in [1], the CC50 was more than 100 µM.
Take `CCCCCCCCCCCC[C@@H]1CC[P@@](=O)(OC)OC(C)=C1C(=O)OC`: the MIC50 in [2] is more than 100 µM; in [3] it was more than 100 µM; in [4], 7.9 µM (≈ 3.18 µg/mL). Moreover, the CC50 in test [1] was more than 100 µM.
As for `CCCCC[C@H]1CC[P@@](=O)(OC)OC(C)=C1C(=O)OC`, in [1], the CC50 is more than 100 µM.

These data come from ChEMBL document CHEMBL5113371, “Lipolytic enzymes inhibitors: A new way for antibacterial drugs discovery” (Eur J Med Chem, 2021).
